This passage reports IC50 and JAK1/TYK2 selectivity results from patent EP4813463A2, “TYK2 INHIBITORS AND COMPOSITIONS AND METHODS THEREOF” (Lynk Pharmaceuticals Co. Ltd., priority 2023, dated 2024).

Each structure is given as a SMILES string. Where two headings read alike, the source gives them in different places. Where only a bound is given, the exact number is not on record here.

Assay [1] concerns Ba/F3-FL-TYK2-P760L cells. Briefly: Anti-proliferative assay in engineered Ba/F3 cells (Cell-Titer Glo, 72 h). Conditions: Mus musculus, concentration that causes 50% growth inhibition, read-out: Baf3-FL-T2P760L. The class given is cell-based. The gist of the method: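 Ba/F3 cells carrying Tel-dimerization/JAK kinase fusion, IL-3-independent, in RPMI-1640 + 10% FBS; 9-point 3-fold dilutions from 20 µM (0.1% DMSO) added after 24 h, 72 h at 37 °C. Viability by Cell-Titer Glo ATP luminescence; % inhibition versus DMSO cells, blank-corrected, giving IC50.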

A further assay addresses T1, JAK1-JH2 domain (Homo sapiens, UniProt P23458).
T1 construct: JAK1-JH2 domain or TYK2-JH2 domain enzyme in assay buffer
The assay can be described thus: Binding activity test for JH2 domain of JAK1 (Tb-antibody/tracer FRET). The method in brief: (§1)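 Competitive TR-FRET binding: compounds dispensed as an 11-point 3-fold dilution series, then Tb-labelled antibody and tracer added to the JH2 protein system. Incubated at 25°C, then overnight at 4°C; FRET signal read on Envision and IC50 (nM) derived.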

The next assay addresses T2, TYK2-JH2 domain (Homo sapiens, UniProt P29597).
T2 construct: JAK1-JH2 domain or TYK2-JH2 domain enzyme in assay buffer
The assay can be described thus: Binding activity test for JH2 domain of TYK2 (Tb-antibody/tracer FRET). The gist of the method: as §1

Setting [2] is: BaF3, 72 h, 72 h compound treatment.
[3] abbreviates: JH2 domain enzyme; 60 min at 25°C, then 4°C overnight; read-out: JAK1 JH2 Binding IC50.
The mark [4] stands for this setting: JH2 domain enzyme; 60 min at 25°C, then 4°C overnight; read-out: TYK2 JH2 Binding IC50.
Setting [5] is: ratio of JAK1 JH2 to TYK2 JH2 binding IC50.

T2 sequence (P29597 589-875 limits assumed): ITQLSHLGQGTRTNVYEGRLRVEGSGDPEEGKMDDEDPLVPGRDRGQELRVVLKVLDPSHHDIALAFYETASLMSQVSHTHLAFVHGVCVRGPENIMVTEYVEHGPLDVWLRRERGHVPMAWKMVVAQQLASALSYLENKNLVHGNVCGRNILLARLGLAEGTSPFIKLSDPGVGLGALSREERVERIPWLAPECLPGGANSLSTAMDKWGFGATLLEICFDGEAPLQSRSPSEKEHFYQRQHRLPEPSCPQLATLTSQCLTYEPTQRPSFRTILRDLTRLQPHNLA
T1 sequence (P23458 583-855 limits assumed): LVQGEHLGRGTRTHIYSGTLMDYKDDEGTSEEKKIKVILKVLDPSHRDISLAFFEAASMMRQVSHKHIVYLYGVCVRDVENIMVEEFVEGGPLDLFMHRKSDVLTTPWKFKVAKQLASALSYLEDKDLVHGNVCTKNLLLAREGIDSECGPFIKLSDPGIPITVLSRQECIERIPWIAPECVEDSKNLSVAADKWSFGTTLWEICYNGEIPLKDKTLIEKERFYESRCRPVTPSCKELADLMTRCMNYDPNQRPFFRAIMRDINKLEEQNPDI

As for `COC(=O)c1nnc(NC(=O)C2CC2)cc1Nc1cccc(-c2ncn(C)n2)c1OC` [Example 85, Methyl 6-(cyclopropanecarboxamido)-4-((2-methoxy-3-(1-methyl-1H-1,2,4-triazol-3-yl)phenyl)amino)pyridazine-3-carboxylate], the IC50 in assay [1] (setting [2]) was greater than 5000 nM; on JAK1-JH2 domain (setting [3]), greater than 298 nM; at TYK2-JH2 domain (setting [4]), 198 nM. Also, the JAK1/TYK2 selectivity at TYK2-JH2 domain (setting [5]) is reported as greater than 1.51.

`[2H]C([2H])([2H])NC(=O)c1nnc(NC(=O)C2CC2)cc1Nc1cccc(-c2ncn(C)n2)c1C(C)=O` [Example 87, 4-((2-Acetyl-3-(1-methyl-1H-1,2,4-triazol-3-yl)phenyl)amino)-6-(cyclopropanecarboxamido)-N-(methyl-d3)pyridazine-3-carboxamide]: the IC50 is 1860 nM in assay [1] (setting [2]), greater than 298 nM on JAK1-JH2 domain (setting [3]) and greater than 298 nM on TYK2-JH2 domain (setting [4]).

As for `CCOC(=O)c1cnc(NC(=O)C2CC2)cc1Nc1cnn2ccc([C@H](OC)C(F)(F)F)c(OC)c12` [Example 88, Ethyl (S)-6-(cyclopropanecarboxamido)-4-((4-methoxy-5-(2,2,2-trifluoro-1-methoxyethyl)pyrazolo[1,5-a]pyridin-3-yl)amino)nicotinate], the figures for the IC50 (in assay [1] (setting [2]); on JAK1-JH2 domain (setting [3]); at TYK2-JH2 domain (setting [4])) were 719 nM, greater than 298 nM and 1.7 nM, respectively. Besides, at TYK2-JH2 domain (setting [5]), the JAK1/TYK2 selectivity was greater than 175.18.

For `[2H]C([2H])([2H])NC(=O)c1nnc(NC(=O)C2CC2)cc1Nc1cccc(-c2ncn(C)n2)c1C(C)O` (stereo not drawn) [Example 89, 6-(Cyclopropanecarboxamido)-4-((2-(1-hydroxyethyl)-3-(1-methyl-1H-1,2,4-triazol-3-yl)phenyl)amino)-N-(methyl-d3)pyridazine-3-carboxamide], the IC50 is greater than 5000 nM in assay [1] (setting [2]), greater than 298 nM at JAK1-JH2 domain (setting [3]) and greater than 298 nM on TYK2-JH2 domain (setting [4]).

As for `COc1c([C@H](OC)C(F)(F)F)ccn2ncc(Nc3cc(NC(=O)C4CC4)ncc3C(O)C(F)(F)F)c12` (stereo partly drawn) [Example 90, N-(4-((4-methoxy-5-((S)-2,2,2-trifluoro-1-methoxyethyl)pyrazolo[1,5-a]pyridin-3-yl)amino)-5-(2,2,2-trifluoro-1-hydroxyethyl)pyridin-2-yl)cyclopropanecarboxamide], the IC50 in assay [1] (setting [2]) was greater than 5000 nM; on JAK1-JH2 domain (setting [3]), greater than 298 nM; on TYK2-JH2 domain (setting [4]), greater than 298 nM.

For the compound `COc1c([C@H](OC)C(F)(F)F)ccn2ncc(Nc3cc(NC(=O)C4CC4)ncc3C(=O)CC#N)c12` [Example 91, (S)-N-(5-(2-cyanoacetyl)-4-((4-methoxy-5-(2,2,2-trifluoro-1-methoxyethyl)pyrazolo[1,5-a]pyridin-3-yl)amino)pyridin-2-yl)cyclopropanecarboxamide], the results for the IC50 (in assay [1] (setting [2]); on JAK1-JH2 domain (setting [3]); on TYK2-JH2 domain (setting [4])) were 1380 nM, greater than 298 nM and 5.24 nM, respectively. For the same compound, the JAK1/TYK2 selectivity on TYK2-JH2 domain (setting [5]) is reported as greater than 56.93.

Turning to `COc1c([C@H](OC)C(F)(F)F)ccn2ncc(Nc3cc(NC(=O)C4CC4)ncc3C(O)CC#N)c12` (stereo partly drawn) [Example 92, N-(5-(2-cyano-1-hydroxyethyl)-4-((4-methoxy-5-((S)-2,2,2-trifluoro-1-methoxyethyl)pyrazolo[1,5-a]pyridin-3-yl)amino)pyridin-2-yl)cyclopropanecarboxamide], the IC50 stood at 878 nM in assay [1] (setting [2]), 79.6 nM at JAK1-JH2 domain (setting [3]) and 26.5 nM on TYK2-JH2 domain (setting [4]). Moreover, at TYK2-JH2 domain (setting [5]), the JAK1/TYK2 selectivity was 3.00.

For `COC(=O)c1cnc(NC(=O)C2CC2)cc1Nc1cnn2ccc(C(C)C(F)(F)F)c(OC)c12` (stereo not drawn) [Example 93, Methyl 6-(cyclopropanecarbonylamino)-4-[[4-methoxy-5-(2,2,2-trifluoro-1-methylethyl)pyrazolo[1,5-a]pyridin-3-yl]amino]pyridine-3-carboxylate], the IC50 in assay [1] (setting [2]) stood at 577 nM; on JAK1-JH2 domain (setting [3]), 63.7 nM; at TYK2-JH2 domain (setting [4]), 1.24 nM. In addition, the JAK1/TYK2 selectivity at TYK2-JH2 domain (setting [5]) is given as 51.39.

Take `COCOc1cnc(NC(=O)C2CC2)cc1Nc1cnn2ccc([C@H](OC)C(F)(F)F)c(OC)c12` [Example 94, (S)-N-(4-((4-methoxy-5-(2,2,2-trifluoro-1-methoxyethyl)pyrazolo[1,5-a]pyridin-3-yl)amino)-5-(methoxymethoxy)pyridin-2-yl)cyclopropanecarboxamide]: the IC50 in assay [1] (BaF3, 72 h compound treatment) was determined as 4630 nM; on JAK1-JH2 domain (setting [3]), 193 nM; on TYK2-JH2 domain (setting [4]), 141 nM. At TYK2-JH2 domain (setting [5]), the JAK1/TYK2 selectivity is given as 1.37.

Regarding `COc1c([C@H](OC)C(F)(F)F)ccn2ncc(Nc3cc(NC(=O)C4CC4)ncc3OCC#N)c12` [Example 95, (S)-N-(5-(cyanomethoxy)-4-((4-methoxy-5-(2,2,2-trifluoro-1-methoxyethyl)pyrazolo[1,5-a]pyridin-3-yl)amino)pyridin-2-yl)cyclopropanecarboxamide], the figures for the IC50 (in assay [1] (setting [2]); at JAK1-JH2 domain (setting [3]); on TYK2-JH2 domain (setting [4])) were greater than 5000 nM, greater than 298 nM and 68.3 nM, respectively. The JAK1/TYK2 selectivity on TYK2-JH2 domain (setting [5]) is recorded as greater than 4.37.

Turning to `COC(=O)c1c(Nc2nn(C)c3ccc(C(OC)C(F)(F)F)c(OC)c23)cc(NC(=O)C2CC2)nc1N` (stereo not drawn) [Example 96, Methyl 2-amino-6-(cyclopropanecarboxamido)-4-((4-methoxy-1-methyl-5-(2,2,2-trifluoro-1-methoxyethyl)-1H-indazol-3-yl)amino) nicotinate], the IC50 is 2990 nM in assay [1] (BaF3, 72 h compound treatment); greater than 298 nM at JAK1-JH2 domain (read-out: JAK1 JH2 Binding IC50; JH2 domain enzyme; 60 min at 25°C, then 4°C overnight); 93.6 nM at TYK2-JH2 domain (read-out: TYK2 JH2 Binding IC50; JH2 domain enzyme; 60 min at 25°C, then 4°C overnight). Further, the JAK1/TYK2 selectivity on TYK2-JH2 domain (setting [5]) was greater than 3.19.

As to `COC(=O)c1cnc2cc1Nc1cc(cc(-c3ccn(C)n3)c1OC)CCOCc1cccc(n1)N2` [Example 105, Methyl 10-methoxy-11-(1-methyl-1H-pyrazol-3-yl)-16-oxa-2,4,8,22-tetraazatetracyclo[16.3.1.1^{3,7}.1^{9,13}]tetracosa-1(22),3,5,7(24),9(23),10,12,18,20-nonaene-6-carboxylate], the IC50 was found to be 66.8 nM in assay [1] (setting [2]), 232 nM at JAK1-JH2 domain (setting [3]) and 1.21 nM at TYK2-JH2 domain (setting [4]). The JAK1/TYK2 selectivity at TYK2-JH2 domain (setting [5]) was determined as 191.94.

Take `COC(=O)c1cnc(NC(=O)C2CC2)cc1Nc1n[nH]c2ccc(C(OC)C(F)(F)F)c(OC)c12` (stereo not drawn) [Example 113, Methyl 6-(cyclopropanecarboxamido)-4-((4-methoxy-5-(2,2,2-trifluoro-1-methoxyethyl)-1H-indazol-3-yl)amino)nicotinate]: the IC50 was greater than 1000 nM in assay [1] (setting [2]), 74.5 nM at JAK1-JH2 domain (setting [3]) and 0.258 nM on TYK2-JH2 domain (setting [4]). Also, the JAK1/TYK2 selectivity at TYK2-JH2 domain (setting [5]) worked out at 288.80.

In the case of `COC(=O)c1cnc(NC(=O)C2CC2)cc1Nc1nn(C)c2ccc(C(C)C(F)(F)F)c(OC)c12` (stereo not drawn) [Example 123, Methyl 6-(cyclopropanecarboxamido)-4-((4-methoxy-1-methyl-5-(1,1,1-trifluoropropan-2-yl)-1H-indazol-3-yl)amino)nicotinate], the values for the IC50 (in assay [1] (setting [2]); at JAK1-JH2 domain (setting [3]); on TYK2-JH2 domain (setting [4])) were 88.3 nM, 174 nM and 0.37 nM, respectively. Besides, the JAK1/TYK2 selectivity on TYK2-JH2 domain (setting [5]) was found to be 470.33.

For the compound `[2H]C([2H])([2H])O[C@@H](c1ccc2c(c(Nc3cc(NC(=O)C4CC45CC5)ncc3C(=O)OC)nn2C)c1OC)C(F)(F)F` (stereo partly drawn) [Example 136, Methyl 4-((4-methoxy-1-methyl-5-((S)-2,2,2-trifluoro-1-(methoxy-d3)ethyl)-1H-indazol-3-yl)amino)-6-(spiro[2.2]pentane-1-carboxamido)nicotinate], the IC50 in assay [1] (setting [2]) worked out at 21.2 nM; at JAK1-JH2 domain (setting [3]), 77.8 nM; at TYK2-JH2 domain (setting [4]), 0.21 nM. Besides, on TYK2-JH2 domain (setting [5]), the JAK1/TYK2 selectivity stood at 370.63.

On to `CCC(=O)c1cnc(NC(=O)C2CC2)cc1Nc1nn(C)c2ccc([C@H](O)C(F)(F)F)c(OC)c12` [Example 140, (S)-N-(4-((4-Methoxy-1-methyl-5-(2,2,2-trifluoro-1-hydroxyethyl)-1H-indazol-3-yl)amino)-5-propionylpyridin-2-yl)cyclopropanecarboxamide], for which the values for the IC50 (in assay [1] (setting [2]); on JAK1-JH2 domain (setting [3]); at TYK2-JH2 domain (setting [4])) were 0.463 nM, 4.36 nM and 0.061 nM, respectively. The JAK1/TYK2 selectivity at TYK2-JH2 domain (setting [5]) is 71.43.

On to `[2H]C([2H])([2H])C([2H])([2H])C(=O)c1cnc(NC(=O)C2CC2)cc1Nc1nn(C)c2ccc([C@H](O)C(F)(F)F)c(OC)c12` [Example 154, (S)-N-(4-((4-methoxy-1-methyl-5-(2,2,2-trifluoro-1-hydroxyethyl)-1H-indazol-3-yl)amino)-5-(propanoyl-d5)pyridin-2-yl)cyclopropanecarboxamide], for which the IC50 amounted to 0.455 nM in assay [1] (setting [2]), 6.88 nM on JAK1-JH2 domain (setting [3]) and 0.066 nM at TYK2-JH2 domain (setting [4]). For the same compound, the JAK1/TYK2 selectivity on TYK2-JH2 domain (setting [5]) came to 104.27.

Consider `[2H]C([2H])([2H])CC(=O)c1cnc(NC(=O)C2CC2)nc1Nc1cccc(-c2cnn(C)n2)c1OC` [Example 167, N-(4-((2-methoxy-3-(2-methyl-2H-1,2,3-triazol-4-yl)phenyl)amino)-5-(propanoyl-3,3,3-d3)pyrimidin-2-yl)cyclopropanecarboxamide], for which the values for the IC50 (in assay [1] (setting [2]); at JAK1-JH2 domain (setting [3]); on TYK2-JH2 domain (setting [4])) were 60.9 nM, 32 nM and 0.275 nM, respectively. In addition, the JAK1/TYK2 selectivity on TYK2-JH2 domain (setting [5]) was determined as 116.34.
